Data as given in patent publication US20170164607A1, “METHODS OF EXTENDING THE SHELF LIFE OF SUGARCANE STEM SECTIONS AND COATED SUGARCANE STEM SECTIONS” (Syngenta Participations AG, priority 2014, published 2017).
Like-named read-outs stand apart in the source and are kept apart here.

What was measured:
[1] = system: sugarcane stem sections of CP88-762; details: 14 days after planting
Excerpt: Sugarcane stem sections of CP88-762 having a diameter of approximately 25-30 mm and a length of approximately 50 mm were cut and treated with a standard treatment slurry or a standard treatment slurry containing AgNO3 at a final concentration of 600 μMol of AgNO3 as described in Example 3. The AgNO3 treated and control (without AgNO3) sugarcane stem sections were then planted as is or stored for an extended period of time up to 42 days in storage containers as shown at FIG. 1 (i.e., storage containers that allow gas transfer between an interior and so exterior of the storage container) at a storage temperature of 10° C. Following storage, the AgNO3 treated and control sugarcane stem sections were planted in trays of potting soil and placed in a greenhouse as described in example 3. All sugarcane stem sections were evaluated for germination and shoot growth at 14 days after planting.

sugarcane stem sections [2] = details: for Avg. Germ / Avg. Height: evaluated seven days after planting
Procedure: Sugarcane stem sections having a diameter of approximately […] and a length of approximately 50 mm were generated (e.g., cut) from sugarcane stalks. One set of cut sugarcane stem section were dipped into the coating compositions for a dwell time of about 60 seconds, and subsequently allowed to dry at room temperature (i.e., about 30° C. Another set of control sugarcane stem sections were not coated and remained at room temperature (i.e., about 30° C.) (i.e., identified below as “No AgNO3”). The coated and control uncoated sugarcane stem sections were then planted as is (i.e., these stem sections are identified below as “Day Zero”) or stored for a period of time up to three weeks in an air tight jar at room temperature (i.e., about 30° C.). Following storage, the coated and control uncoated sugarcane stem sections were then germinated in biochamber boxes. All coated and control uncoated sugarcane stem sections were germinated in a growth chamber and evaluated seven days after planting.

[3] = system: sugarcane stem sections of CP88-1762
Excerpt: Sugarcane stem sections of CP88-1762 having a diameter of approximately 25-30 mm and a length or approximately 50 mm were coated with a standard treatment slurry (designated control treatment) or treated with the standard treatment slurry which also contained AgNO3 at a concentration of 600 μMol of AgNO3 (designated as AgNO3 treatment). The AgNO3 treated and control sugarcane stem sections were then planted as is or stored for a period of time up to three weeks in storage containers as shown in FIG. 1 (i.e., storage containers that allow gas transfer between an interior and an exterior of the storage container) at storage temperatures ranging from 10° C. to 22° C. Following storage, the AgNO3 treated and control sugarcane stem sections were planted in trays of potting soil and placed in a greenhouse. The trays were watered daily to maintain moisture and the greenhouse maintained at 26/20 C maximum/minimum temperatures with 15 hours light. Growth and germination of all AgNO3 treated and control sugarcane stem sections were evaluated at 7, 14, and 21 days after removal from storage containers.

sugarcane stem sections [4] = details: 300, 600 and 1200 μMol AgNO3; storage up to three weeks in air-tight jars at 16° C.; biochamber boxes or potted soil trays; FIGS. 2-7
Excerpt: Sugarcane stem sections (i.e., two varieties: CP 88-1762 and CP00-1101) having a diameter of approximately 25-30 mm and a length of approximately 50 mm were cut and coated (or left uncoated) as described in Example 1 using coating compositions having AgNO3 concentrations of 0, 300, 600 and 1200 μMol of AgNO3. The coated and control uncoated sugarcane stem sections were then planted as is or stored for a period of time up to three weeks in one gallon air-tight jars (i.e., about 20 coated sugarcane stem sections per jar) at 16° C. Following storage, the coated and control uncoated sugarcane stem sections were then germinated in either biochamber boxes or potted soil trays (i.e., 5 jars each) or both. All coated and control uncoated sugarcane stem sections were planted and evaluated as follows: germination rates were taken in the biochamber boxes at 3, 5, and 7 days after removal from the jars: germination rates were taken in the potted trays at 10, 12, and 14 days after removal from the jars.

[5] = 200 μMol AgNO3, 2 weeks storage in air tight jar at about 30° C.
[6] = 200 μMol AgNO3, 3 weeks storage in air tight jar at about 30° C.
[7] = 400 μMol AgNO3, 2 weeks storage in air tight jar at about 30° C.
[8] = 400 μMol AgNO3, 3 weeks storage in air tight jar at about 30° C.
[9] = 600 μMol AgNO3, 2 weeks storage in air tight jar at about 30° C.
[10] = 600 μMol AgNO3, 3 weeks storage in air tight jar at about 30° C.
[11] = after a weeks of storage in an air-tight jar (3 weeks rows of Table 1)
[12] = 600 μMol AgNO3 in standard treatment slurry, storage up to three weeks at 10° C. to 22° C. in gas-permeable containers, FIGS. 8-9

O=[N+]([O-])[O-].[Ag+] [AgNO3, silver nitrate]
germination rate ([1]; 600 μMol AgNO3, after 6 weeks storage at 10° C., FIG. 11): 68% | germination rates compared to control sugarcane stem sections ([1]; 600 μMol AgNO3 in standard treatment slurry, throughout the 42 days of storage at 10° C., FIG. 11): improved germination rates | plant vitality (as measured by plant height) compared to control sugarcane stem sections ([1]; 600 μMol AgNO3 in standard treatment slurry, throughout the 42 days of storage at 10° C., FIG. 12): improved | germination compared to the control "no AgNO3" sample (sugarcane stem sections [2]; 200 μmol concentration, 2 weeks of storage in an air-tight jar): increased germination | Avg. Germ (sugarcane stem sections [2]; [5]): 83.33% | Avg. Height (sugarcane stem sections [2]; [5]): 51.38 mm | Avg. Germ (sugarcane stem sections [2]; [6]): 52.50% | Avg. Height (sugarcane stem sections [2]; [6]): 42.91 mm | Avg. Germ (sugarcane stem sections [2]; [7]): 52.38% | Avg. Height (sugarcane stem sections [2]; [7]): 39.66 mm | Avg. Germ (sugarcane stem sections [2]; [8]): 45.00% | Avg. Height (sugarcane stem sections [2]; [8]): 30.53 mm | Avg. Germ (sugarcane stem sections [2]; [9]): 61.90% | Avg. Height (sugarcane stem sections [2]; [9]): 40.79 mm | Avg. Germ (sugarcane stem sections [2]; [10]): 87.50% | Avg. Height (sugarcane stem sections [2]; [10]): 55.19 mm | germination over the control "non-AgNO3" samples (sugarcane stem sections [2]; [11]): improved germination | plant height over the control "non-AgNO3" samples (sugarcane stem sections [2]; [11]): improved | stem section germination ([3]; 600 μMol AgNO3, 7 through 21 days storage): significant enhancement | shoot lengths ([3]; 600 μMol AgNO3, all storage periods including day 0 planting): significant enhancement | vitality of sugarcane plants compared to plants from control stem sections ([3]; 600 μMol AgNO3, stored for 14 days at 22° C., 28 days after planting, FIG. 10): much more vitality | germination rates compared to control sugarcane stem sections [3, 12]: improved germination rates | plant vitality (as measured by plant height) compared to control sugarcane stem sections [3, 12]: improved | germination rates compared to the standard slurry applied sugarcane stem sections (sugarcane stem sections [4]): improved germination rates
